According to ChEMBL document CHEMBL4219204, “Structure-based design and discovery of potent and selective KDM5 inhibitors” (Bioorg Med Chem Lett, 2018):
Calls of active or inactive are those of the source. The rule behind the calls is not given here.

Key:
[1] = tested on: Mus musculus; experiment: In vivo inhibition of KDM5 in nude mouse xenografted with human MCF7 cells assessed as increase in H3K4me3 level in tumor at 75 mg/kg, po qd for 5 days measured up to 24 hrs post last dose by Western blot analysis; assay type: functional, organism-based
[2] = Inhibition of CYP450 (unknown origin); assay type: ADME; details: human
[3] = target: Lysine-specific demethylase 5A/5B (Homo sapiens, UniProt P29375+Q9UGL1); experiment: Inhibition of KDM5A/KDM5B in human ZR-75-1 cells assessed as increase in H3K4me3 level after 72 hrs by fluorometric immunoassay; assay type: cell-based
[4] = target: T1, Lysine-specific demethylase 4A (Homo sapiens, UniProt O75164); experiment: Inhibition of KDM4A (unknown origin)
T1 sequence (O75164 whole entry): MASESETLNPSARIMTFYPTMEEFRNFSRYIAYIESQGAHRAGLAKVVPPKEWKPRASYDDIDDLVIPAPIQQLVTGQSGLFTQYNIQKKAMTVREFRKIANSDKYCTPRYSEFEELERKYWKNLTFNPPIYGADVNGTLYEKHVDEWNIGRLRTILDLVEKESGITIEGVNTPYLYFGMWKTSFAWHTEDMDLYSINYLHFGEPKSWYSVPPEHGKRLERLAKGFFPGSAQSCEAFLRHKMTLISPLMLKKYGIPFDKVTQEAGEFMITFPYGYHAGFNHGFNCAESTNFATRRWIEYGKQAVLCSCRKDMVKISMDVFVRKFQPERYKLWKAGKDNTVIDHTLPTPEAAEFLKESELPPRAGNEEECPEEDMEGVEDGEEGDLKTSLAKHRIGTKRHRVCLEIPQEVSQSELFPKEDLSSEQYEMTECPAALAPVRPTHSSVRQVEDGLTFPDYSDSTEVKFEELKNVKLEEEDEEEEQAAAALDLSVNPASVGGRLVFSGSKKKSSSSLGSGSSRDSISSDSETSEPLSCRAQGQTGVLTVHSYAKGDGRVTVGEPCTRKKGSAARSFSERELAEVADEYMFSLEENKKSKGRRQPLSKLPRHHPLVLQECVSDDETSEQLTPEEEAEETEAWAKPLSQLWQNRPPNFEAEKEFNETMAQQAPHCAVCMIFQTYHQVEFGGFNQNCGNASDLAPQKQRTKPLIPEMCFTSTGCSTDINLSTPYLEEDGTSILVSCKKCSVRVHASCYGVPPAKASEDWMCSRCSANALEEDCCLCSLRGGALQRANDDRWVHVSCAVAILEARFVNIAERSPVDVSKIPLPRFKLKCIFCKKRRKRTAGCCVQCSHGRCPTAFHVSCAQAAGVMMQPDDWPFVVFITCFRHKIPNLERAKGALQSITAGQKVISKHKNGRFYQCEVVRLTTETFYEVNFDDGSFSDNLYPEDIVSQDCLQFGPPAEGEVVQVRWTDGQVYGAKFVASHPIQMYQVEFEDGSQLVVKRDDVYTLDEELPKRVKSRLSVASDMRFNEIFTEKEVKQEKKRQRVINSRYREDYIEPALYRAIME

[5] = Oral bioavailability in CD-1 mouse at 10 mg/kg; assay type: ADME, organism-based; details: in vivo
[6] = tested on: Mus musculus; experiment: In vivo inhibition of KDM5 in nude mouse xenografted with human MCF7 cells assessed as increase in H3K4me3 level in tumor at 75 mg/kg, po qd for 5 days measured at 1 hrs post last dose by Western blot analysis relative to control; assay type: functional
[7] = Drug uptake in tumor of nude mouse xenografted with human MCF7 cells at 75 mg/kg, po qd for 5 days measured at 1 hr post last dose; assay type: ADME, organism-based, Neoplasm; details: in vivo
[8] = target: Lysine-specific demethylase 5B (Homo sapiens, UniProt Q9UGL1); experiment: Inhibition of KDM5B (unknown origin) preincubated with enzyme
[9] = target: Lysine-specific histone demethylase 1A (Homo sapiens, UniProt O60341); experiment: Inhibition of KDM1A (unknown origin)
[10] = Volume of distribution in CD-1 mouse at 5 mg/kg, iv; assay type: ADME, organism-based; details: in vivo
[11] = target: Lysine-specific demethylase 5A (Homo sapiens, UniProt P29375); experiment: Inhibition of KDM5A (unknown origin) preincubated with enzyme
[12] = target: Lysine-specific demethylase 6B (Homo sapiens, UniProt O15054); experiment: Inhibition of KDM6B (unknown origin)
[13] = target: ATP-dependent translocase ABCB1 (Homo sapiens, UniProt P08183); experiment: Inhibition of MDR1 (unknown origin); assay type: ADME
[14] = Protein binding in mouse plasma; assay type: ADME, cell-free; details: read-out: PPB (converted)
[15] = target: T2, Lysine-specific demethylase 4E (Homo sapiens, UniProt B2RXH2); experiment: Inhibition of KDM4E (unknown origin)
T2 sequence (B2RXH2 whole entry): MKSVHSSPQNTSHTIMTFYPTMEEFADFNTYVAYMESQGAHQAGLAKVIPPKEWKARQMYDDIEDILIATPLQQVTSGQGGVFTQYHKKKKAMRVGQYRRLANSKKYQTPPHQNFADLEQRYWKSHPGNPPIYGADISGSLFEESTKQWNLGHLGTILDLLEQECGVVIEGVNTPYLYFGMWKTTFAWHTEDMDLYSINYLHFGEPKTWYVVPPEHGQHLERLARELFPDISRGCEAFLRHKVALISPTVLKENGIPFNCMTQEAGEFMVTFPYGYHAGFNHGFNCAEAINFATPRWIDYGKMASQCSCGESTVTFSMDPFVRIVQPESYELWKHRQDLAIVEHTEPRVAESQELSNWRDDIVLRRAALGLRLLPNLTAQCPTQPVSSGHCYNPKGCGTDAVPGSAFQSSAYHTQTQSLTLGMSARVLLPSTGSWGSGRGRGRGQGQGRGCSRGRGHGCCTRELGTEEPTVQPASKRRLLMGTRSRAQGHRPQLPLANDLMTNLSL

Chain of ATP-dependent translocase ABCB1 (P08183 whole entry): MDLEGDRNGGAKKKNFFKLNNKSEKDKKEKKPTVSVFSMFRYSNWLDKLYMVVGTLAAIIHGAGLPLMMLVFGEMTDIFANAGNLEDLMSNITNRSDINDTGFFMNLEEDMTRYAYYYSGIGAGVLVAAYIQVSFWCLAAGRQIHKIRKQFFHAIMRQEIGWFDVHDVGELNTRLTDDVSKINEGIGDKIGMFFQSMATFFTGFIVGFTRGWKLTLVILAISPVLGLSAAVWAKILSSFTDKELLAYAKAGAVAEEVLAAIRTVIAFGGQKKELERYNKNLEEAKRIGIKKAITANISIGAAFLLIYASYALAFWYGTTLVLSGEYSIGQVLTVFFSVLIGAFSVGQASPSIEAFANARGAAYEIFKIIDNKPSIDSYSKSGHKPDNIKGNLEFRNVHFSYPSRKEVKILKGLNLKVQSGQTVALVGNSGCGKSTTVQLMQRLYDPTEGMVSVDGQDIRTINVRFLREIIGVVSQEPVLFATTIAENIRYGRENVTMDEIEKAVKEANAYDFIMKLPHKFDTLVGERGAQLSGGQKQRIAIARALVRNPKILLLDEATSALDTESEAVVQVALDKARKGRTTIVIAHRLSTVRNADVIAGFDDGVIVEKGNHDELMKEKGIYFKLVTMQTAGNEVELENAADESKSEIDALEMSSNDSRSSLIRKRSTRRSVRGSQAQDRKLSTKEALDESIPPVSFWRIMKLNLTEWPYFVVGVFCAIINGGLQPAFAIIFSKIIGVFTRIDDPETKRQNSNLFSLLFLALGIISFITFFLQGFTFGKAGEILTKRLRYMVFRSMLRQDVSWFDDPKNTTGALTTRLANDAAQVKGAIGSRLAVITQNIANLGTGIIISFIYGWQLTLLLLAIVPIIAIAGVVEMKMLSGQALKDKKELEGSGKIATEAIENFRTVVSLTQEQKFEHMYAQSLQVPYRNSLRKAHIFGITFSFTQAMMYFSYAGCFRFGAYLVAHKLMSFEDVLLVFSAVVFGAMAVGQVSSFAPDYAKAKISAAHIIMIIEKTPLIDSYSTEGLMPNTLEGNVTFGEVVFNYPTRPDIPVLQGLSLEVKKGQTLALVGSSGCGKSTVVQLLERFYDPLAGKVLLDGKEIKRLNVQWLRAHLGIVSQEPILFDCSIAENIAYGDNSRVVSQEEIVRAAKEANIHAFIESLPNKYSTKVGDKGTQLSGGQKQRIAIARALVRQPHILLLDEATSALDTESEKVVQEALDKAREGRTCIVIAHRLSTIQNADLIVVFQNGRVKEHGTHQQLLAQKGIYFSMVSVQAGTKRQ
Chain of Lysine-specific demethylase 5A (P29375 whole entry): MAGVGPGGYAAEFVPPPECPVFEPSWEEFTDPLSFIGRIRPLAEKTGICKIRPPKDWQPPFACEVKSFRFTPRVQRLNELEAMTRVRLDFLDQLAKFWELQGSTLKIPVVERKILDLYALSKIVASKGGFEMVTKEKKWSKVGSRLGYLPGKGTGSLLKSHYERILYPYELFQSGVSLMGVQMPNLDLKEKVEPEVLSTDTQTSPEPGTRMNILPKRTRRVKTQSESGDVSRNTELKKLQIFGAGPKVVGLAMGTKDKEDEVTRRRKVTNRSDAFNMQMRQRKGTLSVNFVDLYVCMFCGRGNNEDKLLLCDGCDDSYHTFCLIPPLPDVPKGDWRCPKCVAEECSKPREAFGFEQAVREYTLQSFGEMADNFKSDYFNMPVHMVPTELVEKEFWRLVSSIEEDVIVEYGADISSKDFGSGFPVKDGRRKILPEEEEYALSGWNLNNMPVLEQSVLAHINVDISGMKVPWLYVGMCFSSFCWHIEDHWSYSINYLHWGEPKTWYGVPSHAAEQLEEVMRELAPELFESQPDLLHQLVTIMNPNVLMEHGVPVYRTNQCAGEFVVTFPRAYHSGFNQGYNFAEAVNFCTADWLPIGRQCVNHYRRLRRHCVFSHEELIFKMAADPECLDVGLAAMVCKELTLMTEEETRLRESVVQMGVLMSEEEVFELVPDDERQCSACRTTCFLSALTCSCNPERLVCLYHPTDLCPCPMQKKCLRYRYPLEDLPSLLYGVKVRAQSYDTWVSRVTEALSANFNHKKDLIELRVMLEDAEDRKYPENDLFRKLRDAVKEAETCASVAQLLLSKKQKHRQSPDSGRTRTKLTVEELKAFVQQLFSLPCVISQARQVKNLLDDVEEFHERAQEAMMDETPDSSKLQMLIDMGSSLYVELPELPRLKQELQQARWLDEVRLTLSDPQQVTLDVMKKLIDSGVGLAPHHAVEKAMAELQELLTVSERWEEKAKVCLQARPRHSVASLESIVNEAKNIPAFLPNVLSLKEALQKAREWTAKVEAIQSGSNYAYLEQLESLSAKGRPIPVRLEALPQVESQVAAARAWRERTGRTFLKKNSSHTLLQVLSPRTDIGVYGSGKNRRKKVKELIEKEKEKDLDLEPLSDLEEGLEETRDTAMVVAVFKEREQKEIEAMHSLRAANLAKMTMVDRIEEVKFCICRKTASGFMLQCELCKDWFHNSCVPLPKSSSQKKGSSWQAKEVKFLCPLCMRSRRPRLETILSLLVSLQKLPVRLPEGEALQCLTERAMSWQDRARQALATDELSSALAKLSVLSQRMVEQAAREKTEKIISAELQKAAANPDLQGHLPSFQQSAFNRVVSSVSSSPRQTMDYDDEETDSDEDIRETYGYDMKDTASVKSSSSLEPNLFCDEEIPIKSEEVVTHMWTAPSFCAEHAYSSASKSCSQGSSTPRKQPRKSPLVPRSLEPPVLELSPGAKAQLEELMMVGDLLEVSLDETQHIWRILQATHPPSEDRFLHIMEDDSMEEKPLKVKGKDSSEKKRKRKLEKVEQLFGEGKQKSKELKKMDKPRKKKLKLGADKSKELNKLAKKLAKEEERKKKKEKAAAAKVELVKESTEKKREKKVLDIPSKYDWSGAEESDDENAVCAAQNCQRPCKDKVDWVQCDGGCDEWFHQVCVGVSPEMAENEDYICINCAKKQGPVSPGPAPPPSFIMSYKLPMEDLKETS
Chain of Lysine-specific demethylase 6B (O15054 whole entry): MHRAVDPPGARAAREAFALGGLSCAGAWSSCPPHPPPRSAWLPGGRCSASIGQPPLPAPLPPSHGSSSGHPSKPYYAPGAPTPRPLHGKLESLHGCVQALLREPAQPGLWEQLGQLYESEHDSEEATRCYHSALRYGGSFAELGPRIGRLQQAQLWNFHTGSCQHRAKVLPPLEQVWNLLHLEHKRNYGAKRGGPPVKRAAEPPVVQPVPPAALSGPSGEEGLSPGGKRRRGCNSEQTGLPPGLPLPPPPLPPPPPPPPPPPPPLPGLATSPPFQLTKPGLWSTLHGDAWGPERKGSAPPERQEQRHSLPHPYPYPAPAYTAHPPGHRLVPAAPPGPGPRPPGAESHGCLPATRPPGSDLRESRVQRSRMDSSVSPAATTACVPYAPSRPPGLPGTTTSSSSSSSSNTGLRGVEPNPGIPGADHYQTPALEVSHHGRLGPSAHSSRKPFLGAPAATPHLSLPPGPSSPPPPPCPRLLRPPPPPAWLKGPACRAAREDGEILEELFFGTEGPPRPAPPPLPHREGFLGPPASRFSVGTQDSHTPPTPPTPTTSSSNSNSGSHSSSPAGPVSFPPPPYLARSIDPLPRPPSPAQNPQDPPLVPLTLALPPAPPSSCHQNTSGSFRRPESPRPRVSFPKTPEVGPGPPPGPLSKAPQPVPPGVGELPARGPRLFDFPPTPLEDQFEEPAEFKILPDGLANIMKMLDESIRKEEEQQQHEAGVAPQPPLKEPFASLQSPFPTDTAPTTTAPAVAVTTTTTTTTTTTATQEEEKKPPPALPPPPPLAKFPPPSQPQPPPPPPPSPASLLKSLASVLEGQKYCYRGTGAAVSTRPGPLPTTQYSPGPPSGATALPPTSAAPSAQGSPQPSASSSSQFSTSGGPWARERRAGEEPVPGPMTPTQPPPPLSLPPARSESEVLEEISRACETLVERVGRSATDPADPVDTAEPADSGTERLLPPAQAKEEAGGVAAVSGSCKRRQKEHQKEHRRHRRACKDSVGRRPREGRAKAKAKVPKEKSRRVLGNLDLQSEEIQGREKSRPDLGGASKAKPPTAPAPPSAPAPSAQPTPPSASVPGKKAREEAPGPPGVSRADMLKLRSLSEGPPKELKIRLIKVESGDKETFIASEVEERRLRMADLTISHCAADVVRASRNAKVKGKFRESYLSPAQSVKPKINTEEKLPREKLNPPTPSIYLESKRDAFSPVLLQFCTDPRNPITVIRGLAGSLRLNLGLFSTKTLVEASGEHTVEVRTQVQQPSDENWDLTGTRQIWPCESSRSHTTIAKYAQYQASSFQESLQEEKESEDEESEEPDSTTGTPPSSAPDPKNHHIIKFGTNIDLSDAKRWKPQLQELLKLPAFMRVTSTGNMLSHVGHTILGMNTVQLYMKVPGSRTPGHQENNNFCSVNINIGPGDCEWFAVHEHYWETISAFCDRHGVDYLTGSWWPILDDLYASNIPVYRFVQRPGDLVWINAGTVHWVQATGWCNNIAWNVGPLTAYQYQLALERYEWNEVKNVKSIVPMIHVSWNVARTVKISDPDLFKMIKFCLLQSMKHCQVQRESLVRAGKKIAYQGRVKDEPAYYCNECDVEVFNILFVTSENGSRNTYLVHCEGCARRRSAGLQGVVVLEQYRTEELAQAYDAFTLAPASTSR

- inhibition (INH) [2]: Not Active
- EC50 [3]: 0.09 µM
- IC50 [4]: 0.099 µM
- bioavailability [5]: 55%
- Drug uptake [7]: Active
- IC50 [8]: 0.002 µM
- IC50 [9]: > 40 µM
- Vd [10]: 0.16 L/kg
- IC50 [11]: 0.013 µM
- IC50 [12]: 2.3 µM
- inhibition (INH) [13]: Not Active
- fraction unbound [14]: 0.009
- IC50 [15]: 0.16 µM
SMILES: Cc1cc(Cl)ccc1COc1ccnn1-c1cc(C(=O)O)ccn1
- inhibition [1]: Active
- fold change (FC) [6]: >4
